Results taken from patent US20070043104A1, “UII-modulating compounds and their use” (priority 2005, published 2007).
Where a name gives a salt, the structure may show the parent alone. Read-outs that look alike come from different tables or passages of the source.

Target: T1, human urotensin II receptor (Homo sapiens, UniProt Q9UKP6)
T1 construct: expressed in transfected cells; host or cells: NIH3T3 cells
T1 sequence (Q9UKP6 1-389): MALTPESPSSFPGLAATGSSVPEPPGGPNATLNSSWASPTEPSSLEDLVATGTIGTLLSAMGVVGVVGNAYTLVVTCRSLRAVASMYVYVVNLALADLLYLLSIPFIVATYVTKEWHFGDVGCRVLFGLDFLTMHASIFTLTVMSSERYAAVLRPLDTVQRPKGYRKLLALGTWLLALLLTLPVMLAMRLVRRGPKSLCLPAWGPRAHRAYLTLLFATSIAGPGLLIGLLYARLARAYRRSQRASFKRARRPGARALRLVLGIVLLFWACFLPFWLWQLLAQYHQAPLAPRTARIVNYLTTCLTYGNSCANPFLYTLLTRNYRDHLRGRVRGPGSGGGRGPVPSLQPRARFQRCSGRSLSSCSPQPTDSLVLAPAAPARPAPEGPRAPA
Experiment: Receptor Selection and Amplification (R-SAT) functional assay, NIH3T3 cells transfected with human urotensin II receptor and β-galactosidase marker
Type: cell-based
Conditions: for EC50 / pEC50: eight doses in triplicate
Procedure: The functional receptor assay, Receptor Selection and Amplification Technology (R-SAT™), was used (with minor modifications from the procedure described previously (Brann, M. R. U.S. Pat. No. 5,707,798, 1998; Chem. Abstr. 1998, 128, 111548) to screen compounds for efficacy at the UII receptor. The RSAT assay was conducted as described herein.
Briefly, NIH3T3 cells were grown in tissue culture treated rollerbottles to 40-80% confluence in Dulbecco's modified Eagle's medium (DMEM) supplemented with 10% bovine calf serum (Hyclone) and 1% penicillin/streptomycin/glutamine (Invitrogen). Cells were transfected for 12-18 hours with the human urotensin II receptor and the β-galactosidase marker. After transfection, the cells were trypsinized, harvested and frozen in DMEM containing 10% DMSO. Frozen cells were later thawed and tested for a response to a control compound to perform quality control before initiation of pharmacological testing, ensuring the correct pharmacological response and sufficient sensitivity. To initiate the pharmacological assay, cells were thawed rapidly and prepared in DMEM media containing 0.4% calf serum (Hyclone), 30% UltraCulture (Biowhittaker), and 1% penicillin/streptomycin/glutamine (Invitrogen), and then plated at 10,000-40,000 cells per well of a 96½ area plate that contained either the test compounds or reference ligands. Cells were then grown in a humidified atmosphere with 5% ambient CO2 for five days. Media was then removed from the plates and marker gene activity was measured by the addition of the beta-galactosidase substrate ONPG (in PBS with 5% NP-40). The resulting colorimetric reaction was measured in a spectrophotometric plate reader (Titertek Inc.) at […].
pEC50 represents the negative logarithm of the concentration of ligand that caused 50% activation of the basal receptor response. Percent activation was calculated as the difference between the absorbance measurements in the absence of added ligand compared with that in the presence of saturating concentrations of ligand normalized to the absorbance difference for the reference ligand, which was assigned a value of 100%.
Results were determined in R-SAT assays and are expressed as pEC50, the negative of the log EC50 in molarity. Results are the average±standard deviation of 2-X determinations of the EC50 where each compound was tested in eight doses in triplicate.

[1] = NIH3T3, Table 4, % efficacy normalized to UII at 100%
[2] = Table 4, negative of the log EC50 in molarity, average ± standard deviation of 2-5 determinations
[3] = NIH3T3, Table 3, percent activation normalized to the reference ligand assigned 100%, read-out: Efficacy
[4] = Table 3, negative of the log EC50 in molarity, average ± standard deviation (or range) of determinations

Compound | Emax [1] | EC50 [2] | Emax [3] | pEC50 [4] | also measured
Cc1ccc(C(CCN(C)C)NC(=O)CCc2ccccc2)cc1 (stereo not shown) [B4, N-[3-Dimethylamino-1-(4-methylphenyl)propyl]-3-phenylpropionamide HCl] | 73 ± 9% | 4570 nM |  |  | 
CN(C)CCC(OC(=O)c1cccc2ccccc12)c1ccc(Cl)cc1.Cl (stereo not shown) [4k, 1-(4-Chlorophenyl)-3-dimethylamino-propyl naphthalene-1-carboxylate HCl] |  |  | 95 ± 24% | 5.64 ± 0.02 | 
Cc1ccc(C)c(C(=O)OC(CCN(C)C)c2ccc(Cl)cc2)c1.Cl (stereo not shown) [4h, 1-(4-Chlorophenyl)-3-dimethylamino-propyl 2,5-dimethyl-benzoate HCl] |  |  | 86% | 5.73 ± 0.15 | 
CN(C)CCC(OC(=O)c1cn(C)c2ccccc12)c1ccc(Cl)cc1 (stereo not shown) [4o, 1-(4-Chlorophenyl)-3-dimethylamino-propyl 1-methyl-indole-3-carboxylate HCl] |  |  | 115 ± 71% |  | EC50 [4]: 1620 nM
COc1ccc(CCC(=O)NC(CCN(C)C)c2ccc3ccccc3c2)cc1.Cl (stereo not shown) [C6] |  |  |  |  | Efficacy (Table 4, % efficacy normalized to UII at 100%): 113 ± 9%; pEC50 [2]: 5.85 ± 0.11
COc1cccc(NC(=O)OC(CCN(C)C)c2ccc(Cl)cc2)c1 (stereo not shown) [7b, N-[1-(4-Chlorophenyl)-3-dimethylaminopropyloxycarbonyl]-3-methoxyphenyl-amine] |  |  | 133 ± 36% | 5.95 ± 0.09 | 
COc1ccc(C=CC(=O)NC(CCN(C)C)c2ccc(C)cc2)cc1 (stereo not shown) [B9, N-[3-Dimethylamino-1-(4-methylphenyl)propyl]-4-methoxy-cinnamic amide HCl] | 79 ± 14% | 2000 nM |  |  | 
CN(C)CCC(NC(=O)NCc1ccccc1)c1ccc(Cl)cc1 (stereo not shown) [8e, 1-[1-(4-Chlorophenyl)-3-dimethylaminopropyl]-3-benzyl-carbamide oxalate] |  |  | 166 to 193% |  | EC50 [4]: 1780 to 2290 nM
Cc1cc(C)c(C(=O)OC(CCN(C)C)c2ccc(Cl)cc2)cc1C.Cl (stereo not shown) [4i, 1-(4-Chlorophenyl)-3-dimethylamino-propyl 2,4,5-trimethyl-benzoate HCl] |  |  | 60 ± 4% | 6.33 ± 0.6 | 
CN(C)CCC(NC(=O)c1ccc2c(c1)OCO2)c1ccc(Cl)cc1.O=C(O)C(=O)O (stereo not shown) [5l, N-(1-(4-chlorophenyl)-3-(dimethylamino)propyl)benzo [d][1,3]dioxole-5-carboxamide oxalate] |  |  | 148 ± 32% | 5.67 ± 0.17 | 
Cc1ccccc1C(=O)NC(CCN(C)C)c1ccc(Cl)cc1.O=C(O)C(=O)O (stereo not shown) [5b, N-[1-(4-Chlorophenyl)-3-dimethylamino-propyl]-2-methyl-benzamide oxalate] |  |  | 175 ± 15% | 5.45 ± 0.04 | 
CN(C)CCC(NC(=O)c1ccc(-c2ccccc2)cc1)c1ccc(Cl)cc1.O=C(O)C(=O)O (stereo not shown) [5o, N-[1-(4-Chlorophenyl)-3-dimethylamino-propyl]-4-phenyl-benzamide oxalate] |  |  | 116 ± 11% | 7.11 ± 0.01 | 
Cc1ccc(C)c(C(=O)NC(CCN(C)C)c2ccc(Cl)cc2)c1.O=C(O)C(=O)O (stereo not shown) [5j, N-[1-(4-Chlorophenyl)-3-dimethylamino-propyl]-2,5-dimethyl-benzamide oxalate] |  |  | 164 ± 20% | 5.54 ± 0.04 | 
CN(C)CCC(NC(=O)c1ccc(C(F)(F)F)cc1)c1ccc(Cl)cc1 (stereo not shown) [5q, N-[1-(4-Chlorophenyl)-3-dimethylaminopropyl]-4-trifluoromethyl-benzamide oxalate] |  |  | 100 to 127% |  | EC50 [4]: 66.1 to 102 nM
N-[1-(4-Chlorophenyl)-3-dimethylaminopropyloxycarbonyl]-4-phenyl-amine [7f] |  |  |  | 6.44-6.67 | Efficacy (Table 3, percent activation normalized to the reference ligand assigned 100%): 43-75%
Cc1c(Cl)cccc1C(=O)NC(CCN(C)C)c1ccc(Cl)cc1.O=C(O)C(=O)O (stereo not shown) [5h, N-[1-(4-Chlorophenyl)-3-dimethylamino-propyl]-3-chloro-2-methyl-benzamide oxalate] |  |  | 142 ± 14% | 5.76 ± 0.13 | 

Compound | Emax [1] | EC50 [2] | Emax [3] | pEC50 [4] | also measured
CN(C)CCC(NC(=O)Cc1ccc(C(F)(F)F)cc1)c1ccc(Cl)cc1 (stereo not shown) [A2, N-[1-(4-Chlorophenyl)-3-dimethylamino-propyl]-2-(4-trifluoromethylphenyl)acetamide HCl] | 53 ± 7% | 871 nM |  |  | 
Cc1ccc(S(=O)(=O)NC(CCN(C)C)c2ccc(Cl)cc2)cc1.O=C(O)C(=O)O (stereo not shown) [6a, N-[1-(4-Chlorophenyl)-3-dimethylaminopropyl]-4-methyl-benzenesulfonamide oxalate] |  |  | 74 ± 10% | 5.19 ± 0.09 | 
COc1ccc(NC(=O)OC(CCN(C)C)c2ccc(Cl)cc2)cc1 (stereo not shown) [7h, N-[1-(4-Chlorophenyl)-3-dimethylaminopropyloxycarbonyl]-4-methoxyphenyl-amine] |  |  | 130 to 223% |  | EC50 [4]: 955 to 2450 nM
Cc1ccc(C(CCN(C)C)NC(=O)Cc2ccc(C(F)(F)F)cc2)cc1 (stereo not shown) [B2, N-[3-Dimethylamino-1-(4-methylphenyl)propyl]-2-(4-trifluoromethylphenyl)acetamide HCl] | 25 ± 4% | 1120 nM |  |  | 
CN(C)CCC(OC(=O)Nc1ccc(C(F)(F)F)cc1)c1ccc(Cl)cc1 (stereo not shown) [7i, N-[1-(4-Chlorophenyl)-3-dimethylaminopropyloxycarbonyl]-4-trifluoromethylphenyl-amine] |  |  | 70 to 114% |  | EC50 [4]: 178 to 309 nM
COc1ccc(NC(=O)NC(CCN(C)C)c2ccc(Cl)cc2)cc1 (stereo not shown) [8h, 1-[1-(4-Chlorophenyl)-3-dimethylaminopropyl]-3-(4-methoxyphenyl)-carbamide oxalate] |  |  | 176 to 231% |  | EC50 [4]: 1820 to 2340 nM
CN(C)CCC(NC(=O)Nc1ccc(-c2ccccc2)cc1)c1ccc(Cl)cc1 (stereo not shown) [8f, 1-[1-(4-Chlorophenyl)-3-dimethylaminopropyl]-3-(4-phenylphenyl)-carbamide oxalate] |  |  | 75 to 111% |  | EC50 [4]: 110 to 178 nM
CN(C)CCC(NC(=O)C=Cc1ccc(C(F)(F)F)cc1)c1ccc2ccccc2c1 (stereo not shown) [C8, N-[3-Dimethylamino-1-(2-naphthyl)propyl]-4-trifluoromethyl-cinnamic amide HCl] | 117 ± 1% | 135 nM |  |  | 
CN(C)CCC(NC(=O)Cc1ccc(C(F)(F)F)cc1)c1ccc2ccccc2c1 (stereo not shown) [C2, N-[3-Dimethylamino-1-(2-naphthyl)propyl]-2-(4-trifluoromethylphenyl)acetamide HCl] | 40 ± 3% | 575 nM |  |  | 
CN(C)CCC(OC(=O)Nc1ccc2ccccc2c1)c1ccc(Cl)cc1 (stereo not shown) [7g, N-[1-(4-Chlorophenyl)-3-dimethylaminopropyloxycarbonyl]-2-naphthyl-amine] |  |  | 74 to 107% |  | EC50 [4]: 263 to 759 nM
COc1ccc(C=CC(=O)NC(CCN(C)C)c2ccc(Cl)cc2)cc1 (stereo not shown) [A9, N-[1-(4-Chlorophenyl)-3-dimethylamino-propyl]-4-methoxy-cinnamic amide HCl] | 99 ± 4% | 513 nM |  |  | 
Cc1ccc(C(CCN(C)C)NC(=O)CCc2ccc(C(F)(F)F)cc2)cc1 (stereo not shown) [B5, N-[3-Dimethylamino-1-(4-methylphenyl)propyl]-3-(4-trifluoromethylphenyl) propionamide HCl] | 60 ± 6% | 2290 nM |  |  | 
COc1cccc(C(=O)NC(CCN(C)C)c2ccc(Cl)cc2)c1C.O=C(O)C(=O)O (stereo not shown) [5g, N-[1-(4-Chlorophenyl)-3-dimethylamino-propyl]-3-methoxy-2-methyl-benzamide oxalate] |  |  | 179 ± 11% | 5.37 ± 0.14 | 
CN(C)CCC(NC(=O)CCc1ccccc1)c1ccc(Cl)cc1 (stereo not shown) [A4, N-[1-(4-Chlorophenyl)-3-dimethylamino-propyl]-3-phenyl-propionamide HCl] | 139 ± 5% | 1660 nM |  |  | 
Cc1ccc(C(CCN(C)C)NC(=O)C=Cc2ccc(C(F)(F)F)cc2)cc1 (stereo not shown) [B8, N-[3-Dimethylamino-1-(4-methylphenyl)propyl]-4-trifluoromethyl-cinnamic amide HCl] | 96 ± 1% | 437 nM |  |  | 
Cc1cccc(C(=O)OC(CCN(C)C)c2ccc(Cl)cc2)c1C (stereo not shown) [4d, 1-(4-Chlorophenyl)-3-dimethylamino-propyl 2,3-dimethyl-benzoate HCl] |  |  | 94 ± 42% |  | EC50 [4]: 1260 nM
